Consider 14 molecules from US10723727B2, “Tubulysin analogs and methods for their preparation” (priority 2016, dated 2020).

Like-named read-outs stand apart in the source and are kept apart here.

The target in experiment [1] is T1, tubulin/RB3-stathmin-like-domain (RB3-SLD-tdm) complex (Sus scrofa, UniProt P02550+P02554).
T1 construct: purchased Cytoskeleton, Inc. T240; host or cells: RB3-SLD was made in house in E. coli
Put plainly: Tubulin Peptide-Binding Site Competition Assay (fluorescence polarization). The arrangement: species or system Porcine. The procedure:
Tubulin Peptide-Binding Site Competition Assay
Tubulin binding potency was measured for payloads or cysteine-capped linker-payloads using a fluorescence polarization (FP) competition assay. The binding of a BODIPY-labeled vinca peptide probe (# B31) to a tubulin/RB3-stathmin-like-domain (RB3-SLD-tdm) complex generates a high FP signal, which can be decreased when mixing with test compounds that compete with the FP probe. The order of addition for the reagents in the FP assay was designed to pre-mix the FP probe with various concentrations of the test compound before mixing them with the tubulin/RB3-SLD-dm complex. The final assay concentrations of the probe, tubulin and RB3-SLD-dm were 3, 6, and 100 nM, respectively. IC50 for each test compound is obtained by fitting the dose-dependent FP signal change using GraphPad Prism version 5 software (La Jolla, Calif.) while Ki is converted from the IC50 using the equations described previously (Nikolovska-Coleska et al., 2004). The FP signals were measured on an Infinite M1000 (Tecan, San Jose, Calif.) using ProxiPlate-384 F Plus, Black (Perkin-Elmer, Waltham, Mass., Cat #6008260) with 15 μL of solution per well. Sample dilution and mixing were done using a Beckman Biomek XF (Brea, Calif.). Porcine tubulin was purchased from Cytoskeleton, Inc. (Denver, Colo., Cat #T240) and RB3-SLD was expressed in E. coli. and purified on Q and then Superdex75 columns. The FP assay test for each compound was run in duplicates by mixing 6 μL of solution 1 containing 2.5× test compound (2.5× serial dilution from 7.8 μM maximum concentration, 11 total concentrations) and 7.5 nM of the FP probe in 80 mM PIPES, pH 7.0, 0.02% Tween 20, 2 mM MgCl2, 1 mM EGTA and 3% DMSO with 9 μL of solution 2 containing […] porcine tubulin and 167 nM of RB3-SLD-dm peptide ([…]-[…]) on ProxiPlate-384 micro-plates.
For orientation: Fluorescence polarisation rises when a labelled molecule tumbles more slowly, as on binding a larger partner.

Experiment [2] deals with N87 (gastric cancer) cells. Put plainly: In vitro cell assay (MTS cell viability), N87. The experiment is classed as cell-based. The conditions noted are these: 96 h, free compounds; 96 hours after treatment. As to the method: (§1) In Vitro Cell Assay Procedure
(§2) Target expressing (BT474 (breast cancer), N87 (gastric cancer), HCC1954 (breast cancer), MDA-MB-361-DYT2 (breast cancer)) or non-expressing (HT-29) cells were seeded in 96-well cell culture plates for 24 hours before treatment. Cells were treated with 3-fold serially diluted antibody-drug conjugates or free compounds (i. e. no antibody conjugated to the drug) in duplicate at 10 concentrations. Cell viability was determined by CellTiter 96® AQueous One Solution Cell Proliferation MTS Assay (Promega, Madison Wis.) 96 hours after treatment. Relative cell viability was determined as percentage of untreated control. IC50 values were calculated using a four parameter logistic model #203 with XLfit v4. 2 (IDBS, Guildford, Surry, UK).

Experiment [3] concerns MDA-MB-361-DYT2 (breast cancer) cells. As to the kind of experiment: In vitro cell assay (MTS cell viability), MDA-MB-361-DYT2. The experiment is classed as cell-based. The conditions noted are these: 96 h, free compounds; 96 hours after treatment. The procedure: as §1, §2
Where [4] appears, read: FP competition with BODIPY-labeled vinca peptide probe, read after five hours at 22° C., read-out: Tubulin Peptide-Binding Site Competition Assay IC50.

Turning to `CC[C@H](C)[C@H](NC(=O)C1(N(C)C)CCCC1)C(=O)N(C)[C@H](C[C@@H](OC(C)=O)c1nc(C(=O)N[C@@H](Cc2ccccc2)C[C@H](C)C(=O)OC)cs1)C(C)C` [#B1, methyl (2S,4R)-4-{[(2-{(1R,3R)-1-(acetyloxy)-3-[(N-{[1-(dimethylamino)cyclopentyl]carbonyl}-L-isoleucyl)(methyl)amino]-4-methylpentyl}-1,3-thiazol-4-yl)carbonyl]amino}-2-methyl-5-phenylpentanoate], the IC50 (commonly the midpoint of a concentration-inhibition curve) was 250 nM in experiment [1] (setting [4]), 18.9 nM in experiment [2] and 19 nM in experiment [3].

Consider `CC[C@H](C)[C@H](NC(=O)[C@]1(C)CCCN1C)C(=O)N(C)[C@H](C[C@@H](OC(C)=O)c1nc(C(=O)N[C@@H](Cc2ccccc2)C[C@H](C)C(=O)OC)cs1)C(C)C` [#B2, 1,2-dimethyl-L-prolyl-N-[(1R,3R)-1-(acetyloxy)-1-(4-{[(2R,4S)-5-methoxy-4-methyl-5-oxo-1-phenylpentan-2-yl]carbamoyl}-1,3-thiazol-2-yl)-4-methylpentan-3-yl]-N-methyl-L-isoleucinamide], for which the IC50 in experiment [1] (setting [4]) amounted to 92.2 nM; in experiment [2] it was 11.8 nM; in experiment [3], 5.54 nM.

For `CC[C@H](C)[C@H](NC(=O)[C@H]1CCCCN1C)C(=O)N(C)[C@H](C[C@@H](OC(C)=O)c1nc(C(=O)N[C@@H](Cc2ccccc2)CC(C)P(=O)(O)O)cs1)C(C)C` (stereo partly drawn) [#B3, N-[(1R,3R)-1-(acetyloxy)-4-methyl-1-(4-{[(2S)-1-phenyl-4-phosphonopentan-2-yl]carbamoyl}-1,3-thiazol-2-yl)pentan-3-yl]-N-methyl-N˜2˜-{[(2R)-1-methylpiperidin-2-yl]carbonyl}-L-isoleucinamide], the IC50 in experiment [1] turned out to be 4.4 nM; in experiment [2], 14.8 nM; in experiment [3], 9.4 nM.

For `CC[C@H](C)[C@H](NC(=O)[C@H]1CCCCN1C)C(=O)N(C)[C@H](C[C@@H](OC(C)=O)c1nc(C(=O)NN(Cc2ccccc2)CC(C)C(=O)O)cs1)C(C)C` (stereo partly drawn) [#B4, 3-{2-[(2-{(1R,3R)-1-(acetyloxy)-4-methyl-3-[methyl(N-{[(2R)-1-methylpiperidin-2-yl]carbonyl}-L-isoleucyl)amino]pentyl}-1,3-thiazol-4-yl)carbonyl]-1-benzylhydrazinyl}-2-methylpropanoic Acid], the IC50 in experiment [1] (setting [4]) was 4.6 nM; in experiment [2], 3.38 nM; in experiment [3], 2.39 nM.

`CC[C@H](C)[C@H](NC(=O)[C@@]1(C)CCCN1)C(=O)N(C)[C@H](C[C@@H](OC(C)=O)c1nc(C(=O)N[C@@H](Cc2ccccc2)C[C@H](C)C(=O)OC)cs1)C(C)C` [#B6, 2-methyl-D-prolyl-N-[(1R,3R)-1-(acetyloxy)-1-(4-{[(2R,4S)-5-methoxy-4-methyl-5-oxo-1-phenylpentan-2-yl]carbamoyl}-1,3-thiazol-2-yl)-4-methylpentan-3-yl]-N-methyl-L-isoleucinamide]: the concentration for half-maximal inhibition (IC50) in experiment [1] (setting [4]) turned out to be 119 nM; in experiment [2], 29.3 nM; in experiment [3], 18.6 nM.

In the case of `CCOC(=O)[C@@H](C)C[C@H](Cc1ccccc1)NC(=O)c1csc([C@@H](C[C@H](C(C)C)N(C)C(=O)[C@@H](NC(=O)[C@@]2(C)CCCN2C)[C@@H](C)CC)OC(C)=O)n1` [#B7, 1,2-dimethyl-D-prolyl-N-[(1R,3R)-1-(acetyloxy)-1-(4-{[(2R,4S)-5-ethoxy-4-methyl-5-oxo-1-phenylpentan-2-yl]carbamoyl}-1,3-thiazol-2-yl)-4-methylpentan-3-yl]-N-methyl-L-isoleucinamide], the IC50 stood at 11.9 nM in experiment [1] (setting [4]), 9.53 nM in experiment [2] and 5.15 nM in experiment [3].

On to `CC[C@H](C)[C@H](NC(=O)[C@@]1(C)CCCN1C)C(=O)N(C)[C@H](C[C@@H](OC(C)=O)c1nc(C(=O)N[C@@H](Cc2ccccc2)C[C@H](C)C(=O)O)cs1)C(C)C` [#B8, 1,2-dimethyl-D-prolyl-N-[(1R,3R)-1-(acetyloxy)-1-(4-{[(2R,4S)-4-carboxy-1-phenylpentan-2-yl]carbamoyl}-1,3-thiazol-2-yl)-4-methylpentan-3-yl]-N-methyl-L-isoleucinamide], for which the concentration for half-maximal inhibition (IC50) was 1.8 nM in experiment [1] (setting [4]), 0.104 nM in experiment [2] and 0.063 nM in experiment [3].

As to `CC[C@H](C)[C@H](NC(=O)[C@H]1CCCCN1C)C(=O)N(C)[C@H](C[C@@H](OC(C)=O)c1nc(C(=O)N[C@H](CNS(C)(=O)=O)Cc2ccccc2)cs1)C(C)C` [#B36, (1R,3R)-4-methyl-3-[methyl(N-{[(2R)-1-methylpiperidin-2-yl]carbonyl}-L-isoleucyl)amino]-1-[4-({(2S)-1-[(methylsulfonyl)amino]-3-phenylpropan-2-yl}carbamoyl)-1,3-thiazol-2-yl]pentyl acetate], the IC50 in experiment [1] (setting [4]) was determined as 1.7 nM; in experiment [2], 0.459 nM; in experiment [3], 0.255 nM.

Take `CC[C@H](C)[C@H](NC(=O)[C@H]1CCCCN1C)C(=O)N(C)[C@H](C[C@@H](OC(C)=O)c1nc(C(=O)NC(Cc2ccccc2)c2nc(C(=O)O)cs2)cs1)C(C)C` (stereo partly drawn) [#B37, 2-(1-{[(2-{(1R,3R)-1-(acetyloxy)-4-methyl-3-[methyl(N-{[(2R)-1-methylpiperidin-2-yl]carbonyl}-L-isoleucyl)amino]pentyl}-1,3-thiazol-4-yl)carbonyl]amino}-2-phenylethyl)-1,3-thiazole-4-carboxylic acid]: the IC50 in experiment [1] (setting [4]) came out at 1.3 nM; in experiment [2], 228 nM; in experiment [3] it was 240 nM.

`CC[C@H](C)[C@H](NC(=O)[C@H]1CCCCN1C)C(=O)N(C)[C@H](C[C@@H](OC(C)=O)c1nc(C(=O)NCC2OCCc3ccccc32)cs1)C(C)C` (stereo partly drawn) [#B38, (1R,3R)-1-{4-[(3,4-dihydro-1H-isochromen-1-ylmethyl)carbamoyl]-1,3-thiazol-2-yl}-4-methyl-3-[methyl(N-{[(2R)-1-methylpiperidin-2-yl]carbonyl}-L-isoleucyl)amino]pentyl acetate]: the half-inhibitory concentration (IC50) in experiment [1] (setting [4]) was determined as 4.8 nM; in experiment [2] it was 3.06 nM; in experiment [3], 0.925 nM.

In the case of `CCOC(=O)c1ncoc1[C@H](Cc1ccccc1)NC(=O)c1csc([C@@H](C[C@H](C(C)C)N(C)C(=O)[C@@H](NC(=O)[C@H]2CCCCN2C)[C@@H](C)CC)OC(C)=O)n1` [#B39, ethyl 5-[(1S)-1-{[(2-{(1R,3R)-1-(acetyloxy)-4-methyl-3-[methyl(N-{[(2R)-1-methylpiperidin-2-yl]carbonyl}-L-isoleucyl)amino]pentyl}-1,3-thiazol-4-yl)carbonyl]amino}-2-phenylethyl]-1,3-oxazole-4-carboxylate], the IC50 in experiment [1] (setting [4]) is 4.7 nM; in experiment [2], 1.39 nM; in experiment [3], 0.602 nM.

Regarding `CC[C@H](C)[C@H](NC(=O)[C@H]1CCCCN1C)C(=O)N(C)[C@H](C[C@@H](OC(C)=O)c1nc(C(=O)N[C@@H](Cc2ccccc2)CN2CCOCC2)cs1)C(C)C` [#B40, (1R,3R)-4-methyl-3-[methyl(N-{[(2R)-1-methylpiperidin-2-yl]carbonyl}-L-isoleucyl)amino]-1-[4-({(2S)-1-(morpholin-4-yl)-3-phenylpropan-2-yl]carbamoyl}-1,3-thiazol-2-yl)pentyl acetate], the half-maximal inhibitory concentration (IC50) in experiment [1] (setting [4]) was 2.4 nM; in experiment [2] it was 0.485 nM; in experiment [3] it was 0.308 nM.

For the molecule `CCOC(=O)c1ncoc1[C@H](Cc1ccccc1)NC(=O)c1csc([C@@H](C[C@H](C(C)C)N(C)C(=O)[C@@H](NC(=O)[C@@]2(C)CCCN2C)[C@@H](C)CC)OC(C)=O)n1` [#B75, 1,2-dimethyl-D-prolyl-N-{(1R,3R)-1-(acetyloxy)-1-[4-({(1S)-1-[4-(ethoxycarbonyl)-1,3-oxazol-5-yl]-2-phenylethyl}carbamoyl)-1,3-thiazol-2-yl]-4-methylpentan-3-yl}-N-methyl-L-isoleucinamide], the IC50 in experiment [1] (setting [4]) was determined as 25.8 nM.

As to `CC[C@H](C)[C@H](NC(=O)[C@@]1(C)CCCN1C)C(=O)N(C)[C@H](C[C@@H](OC(C)=O)c1nc(C(=O)NCCc2cnn(C)c2)cs1)C(C)C` [#B77, 1,2-dimethyl-D-prolyl-N-[(1R,3R)-1-(acetyloxy)-4-methyl-1-(4-{[2-(1-methyl-1H-pyrazol-4-yl)ethyl]carbamoyl}-1,3-thiazol-2-yl)pentan-3-yl]-N-methyl-L-isoleucinamide], the half-inhibitory concentration (IC50) in experiment [1] (setting [4]) was determined as 249 nM.
